{"source": "patent US11548883B2", "about": "“Compounds as autotaxin inhibitors and pharmaceutical compositions comprising the same” (LegoChem Biosciences, Inc., priority 2017, dated 2023)", "assay_type_in_all_cases": "biochemical", "key": {"[1]": {"system": "LPA production in blood serum", "assay": "Inhibitory activity on LPA production in mouse blood serum", "settings": "mouse blood serum (m), 18:1 LPC added"}, "[2]": {"system": "LPA production in blood serum", "assay": "Inhibitory activity on LPA production in human blood serum", "settings": "human blood serum (h), 18:1 LPC added"}, "human ENPP2": {"molecular_target": "human ENPP2 (Homo sapiens (Human), UniProt Q13822)", "assay": "Inhibitory activity on human ENPP2 (FS-3 assay)", "settings": "human ENPP2, FS-3 substrate, Table 2", "procedure": "Two-fold dilution of each test compound solution (10 μM, 100% dimethyl sulfoxide) is carried out on 96-well V bottom plate (Costar 3363). After ten-fold dilution of each the test compound solution (100% dimethyl sulfoxide) with deionized distilled water, 10 μL of the diluted each compound solution (10% dimethyl sulfoxide) was aliquoted to a black flat bottom 96-well plate (Costar 3915)."}}}
{"smiles": "O=C(Cn1cc(-c2cnc(NC3Cc4ccccc4C3)nc2)c(OCc2ccccc2)n1)N1CCc2[nH]nnc2C1", "note": "[Compound 63, 2-[3-(benzyloxy)-4-{2-[(2,3-dihydro-1H-inden-2-yl)amino]pyrimidin-5-yl}-1H-pyrazol-1-yl]-1-{1H,4H,5H,6H,7H-[1,2,3]triazolo[4,5-c]pyridin-5-yl}ethan-1-one]", "values": [{"measurement": "IC50", "setting": "[1]", "result": 12, "unit": "nM"}, {"measurement": "IC50", "setting": "[2]", "result": 10, "unit": "nM"}]}
{"smiles": "O=C(Cn1cc(-c2cnc(NC3Cc4ccccc4C3)nc2)c(OCCN2CCOCC2)n1)N1CCc2[nH]nnc2C1", "note": "[Compound 66, 2-(4-{2-[(2,3-dihydro-1H-inden-2-yl)amino]pyrimidin-5-yl}-3-[2-(morpholin-4-yl)ethoxy]-1H-pyrazol-1-yl)-1-{1H,4H,5H,6H,7H-[1,2,3]triazolo[4,5-c]pyridin-5-yl}ethan-1-one]", "values": [{"measurement": "IC50", "setting": "human ENPP2", "result": 1.9, "unit": "nM"}, {"measurement": "IC50", "setting": "[1]", "result": 12, "unit": "nM"}]}
{"smiles": "CCN1CC(Oc2nn(CC(=O)N3CCc4[nH]nnc4C3)cc2-c2cnc(NC3Cc4ccccc4C3)nc2)C1", "note": "[Compound 68, 2-(4-{2-[(2,3-dihydro-1H-inden-2-yl)amino]pyrimidin-5-yl}-3-[(1-ethylazetidin-3-yl)oxy]-1H-pyrazol-1-yl)-1-{1H,4H,5H,6H,7H-[1,2,3]triazolo[4,5-c]pyridin-5-yl}ethan-1-one]", "values": [{"measurement": "IC50", "setting": "human ENPP2", "result": 1.8, "unit": "nM"}, {"measurement": "IC50", "setting": "[1]", "result": 32, "unit": "nM"}]}
{"smiles": "CCN1CCC(Oc2nn(CC(=O)N3CCc4[nH]nnc4C3)cc2-c2cnc(NC3Cc4ccccc4C3)nc2)CC1", "note": "[Compound 70, 2-(4-{2-[(2,3-dihydro-1H-inden-2-yl)amino]pyrimidin-5-yl}-3-[(1-ethylpiperidin-4-yl)oxy]-1H-pyrazol-1-yl)-1-{1H,4H,5H,6H,7H-[1,2,3]triazolo[4,5-c]pyridin-5-yl}ethan-1-one]", "values": [{"measurement": "IC50", "setting": "human ENPP2", "result": 2.3, "unit": "nM"}, {"measurement": "IC50", "setting": "[1]", "result": 11, "unit": "nM"}]}
{"smiles": "O=C(O)c1ccc(COc2nn(CC(=O)N3CCc4[nH]nnc4C3)cc2-c2cnc(NC3Cc4ccccc4C3)nc2)cc1", "note": "[Compound 72, 4-{[(4-{2-[(2,3-dihydro-1H-inden-2-yl)amino]pyrimidin-5-yl}-1-(2-oxo-2-{1H,4H,5H,6H,7H-[1,2,3]triazolo[4,5-c]pyridin-5-yl}ethyl)-1H-pyrazol-3-yl)oxy]methyl}benzoic Acid]", "values": [{"measurement": "IC50", "setting": "human ENPP2", "result": 3.4, "unit": "nM"}, {"measurement": "IC50", "setting": "[1]", "result": 42, "unit": "nM"}]}
{"smiles": "O=C(O)COc1nn(CC(=O)N2CCc3[nH]nnc3C2)cc1-c1cnc(NC2Cc3ccccc3C2)nc1", "note": "[Compound 73, 2-[(4-{2-[(2,3-dihydro-1H-inden-2-yl)amino]pyrimidin-5-yl}-1-(2-oxo-2-{1H,4H,5H,6H,7H-[1,2,3]triazolo[4,5-c]pyridin-5-yl}ethyl)-1H-pyrazol-3-yl)oxy]acetic Acid]", "values": [{"measurement": "IC50", "setting": "human ENPP2", "result": 3.7, "unit": "nM"}, {"measurement": "IC50", "setting": "[1]", "result": 69, "unit": "nM"}]}
{"smiles": "CN(C)c1nn(CC(=O)N2CCc3[nH]nnc3C2)cc1-c1cnc(NC2Cc3ccccc3C2)nc1", "note": "[Compound 74, 2-(4-{2-[(2,3-dihydro-1H-inden-2-yl)amino]pyrimidin-5-yl}-3-(dimethylamino)-1H-pyrazol-1-yl)-1-{1H,4H,5H,6H,7H-[1,2,3]triazolo[4,5-c]pyridin-5-yl}ethan-1-one]", "values": [{"measurement": "IC50", "setting": "human ENPP2", "result": 1.7, "unit": "nM"}, {"measurement": "IC50", "setting": "[1]", "result": 15, "unit": "nM"}]}
{"smiles": "CCc1nn(CC(=O)N2CCc3[nH]nnc3C2)cc1-c1cnc(NC2Cc3ccccc3C2)nc1", "note": "[Compound 79, 2-(4-{2-[(2,3-dihydro-1H-inden-2-yl)amino]pyrimidin-5-yl}-3-ethyl-1H-pyrazol-1-yl)-1-{1H,4H,5H,6H,7H-[1,2,3]triazolo[4,5-c]pyridin-5-yl}ethan-1-one]", "values": [{"measurement": "IC50", "setting": "human ENPP2", "result": 1.6, "unit": "nM"}, {"measurement": "IC50", "setting": "[2]", "result": 5, "unit": "nM"}]}
{"smiles": "O=C(Cn1cc(-c2cnc(NC3Cc4ccccc4C3)nc2)c(CN2CCOCC2)n1)N1CCc2[nH]nnc2C1", "note": "[Compound 80, 2-(4-{2-[(2,3-dihydro-1H-inden-2-yl)amino]pyrimidin-5-yl}-3-(morpholin-4-ylmethyl)-1H-pyrazol-1-yl)-1-{1H,4H,5H,6H,7H-[1,2,3]triazolo[4,5-c]pyridin-5-yl}ethan-1-one]", "values": [{"measurement": "IC50", "setting": "human ENPP2", "result": "< 1.56", "unit": "nM"}, {"measurement": "IC50", "setting": "[1]", "result": 6, "unit": "nM"}]}
{"smiles": "O=C(Cn1cc(-c2cnc(NC3Cc4ccccc4C3)nc2)c(CN2CCCCC2)n1)N1CCc2[nH]nnc2C1", "note": "[Compound 81, 2-(4-{2-[(2,3-dihydro-1H-inden-2-yl)amino]pyrimidin-5-yl}-3-(piperidin-1-ylmethyl)-1H-pyrazol-1-yl)-1-{1H,4H,5H,6H,7H-[1,2,3]triazolo[4,5-c]pyridin-5-yl}ethan-1-one]", "values": [{"measurement": "IC50", "setting": "human ENPP2", "result": "< 1.56", "unit": "nM"}, {"measurement": "IC50", "setting": "[1]", "result": 5, "unit": "nM"}]}
{"smiles": "O=C1CN(Cc2nn(CC(=O)N3CCc4[nH]nnc4C3)cc2-c2cnc(NC3Cc4ccccc4C3)nc2)CCN1", "note": "[Compound 82, 4-[(4-{2-[(2,3-dihydro-1H-inden-2-yl)amino]pyrimidin-5-yl}-1-(2-oxo-2-{1H,4H,5H,6H,7H-[1,2,3]triazolo[4,5-c]pyridin-5-yl}ethyl)-1H-pyrazol-3-yl)methyl]piperazin-2-one]", "values": [{"measurement": "IC50", "setting": "human ENPP2", "result": "< 1.56", "unit": "nM"}, {"measurement": "IC50", "setting": "[1]", "result": 8, "unit": "nM"}]}
{"smiles": "O=C(Cn1cc(-c2cnc(NC3Cc4ccccc4C3)nc2)c(CN2CCc3ccccc3C2)n1)N1CCc2[nH]nnc2C1", "note": "[Compound 84, 2-(4-{2-[(2,3-dihydro-1H-inden-2-yl)amino]pyrimidin-5-yl}-3-(1,2,3,4-tetrahydroisoquinolin-2-ylmethyl)-1H-pyrazol-1-yl)-1-{1H,4H,5H,6H,7H-[1,2,3]triazolo[4,5-c]pyridin-5-yl}ethan-1-one]", "values": [{"measurement": "IC50", "setting": "human ENPP2", "result": 2.8, "unit": "nM"}, {"measurement": "IC50", "setting": "[1]", "result": 8, "unit": "nM"}]}
